According to US4416826A, “Peresters and use thereof” (priority 1980, dated 1983):
Read-outs that look alike come from different tables or passages of the source.

What was measured:
[1] = Thermal stability / thermal decomposition of peresters in the dark; assay type: physicochemical; conditions: 110° C., chlorobenzene, dark; initial concn Ia 5.01, Ib 5.15, Ic 5.19 × 10^-2 M
[2] = Triplet energy; assay type: physicochemical
[3] = End group analysis of polystyrene by IR
Description: The polystyrene obtained from each of the above polymerizations is purified by repeated (four times) precipitation from benzene solution with methanol. Before each precipitation, the benzene solution is centrifuged to remove any insoluble material. The finely powdered polymer is filtered and dried under vacuum for two days. Known amounts of polymer are dissolved in benzene and the IR is taken (2000-1500 cm^-1) against benzene in 0.1-mm NaCl cells. The peaks at 1730 and 1670 cm^-1 for the carbonyl groups, caused by ester and benzophenones, respectively, are measured. […] The extinction coefficient of the carbonyl group at 1730 cm^-1 is compared with that of authenticated methyl benzoylbenzoate, which is used as a model to measure the concentration of the ester end groups in the polymer. From the concentration of the ester and the extinction resulting from the carbonyl group in the benzophenone, the absorption caused by the benzophenone that is present as the ester can be calculated. The value is subtracted from the absorption obtained at 1670 cm^- 1 for the polymer. From the resulting absorption, the concentration of benzophenone alone is estimated from the known extinction of benzophenone at that wavelength.

[4] = Photopolymerization of styrene, radical efficiency
Description: Commercial styrene is washed three times with ice cold 2% NaOH solution followed by washing (four times) with distilled water. The styrene is dried over anhydrous CaCl2 and distilled under vacuum before use. The middle fraction of the distillate is used for polymerization. Solvents are purified by conventional means and distilled under N2 atmosphere.
The irradiations are carried out in degassed (three cycles of freeze-thaw under high vacuum) sealed 15-mm Pyrex tubes. The tubes are placed in a merry-go-round with a filtered UV source of 366 nm at the center and the yield of polymer is measured (below 10% conversion) gravimetrically. In all of the cases, tubes of the same size and same volume of solution are used. Number-average molecular weights of the purified polymers are determined by viscometry in a benzene solution. After the polymerization, an aliquot of 0.5 ml from each reaction tube is placed in 2-ml volumetric flasks. The solvent and excess monomer are evaporated under high vacuum for several hours. The remaining flask contents are dissolved in 0.5 ml of benzene or chloroform and the polymer is precipitated by adding 0.5 ml of n-hexane. The solution then is centrifuged and the IR of the centrifugate is measured to determine undecomposed perester. All of the above procedures are carried out as far as possible in the dark. The light intensity is measured by benzophenone-benzhydrol actinometry and observed to be Io =6.56×10^17 quanta/min on the average. The temperature of the tubes is maintained at 30° C.
The efficiency of the radicals to initiate polymerization, f, in the absence of any appreciable amount of chain transfer, can be defined as [formula] assuming bimolecular termination by the combination of two growing chains only [formula] whereas kd =rate of decomposition of perester in mol/liter sec. in the absence of monomer (a function of light intensity).

[5] = Relative quantum yield of initiator decomposition in presence of monomer (IR at 1770 cm^-1); assay type: physicochemical; conditions: benzene, initiator 2 × 10^-2 M
Description: Commercial methyl methacrylate monomer is washed three times with 2% NaOH solution to remove stabilizer. It is then washed with distilled water three times, dried with molecular sieves, and distilled under vacuum before use. Polymerization solutions are prepared in cylindrical tubes which are degassed and sealed. The amount of polymer formed is determined by precipitating the polymer with an excess of methanol, washing with methanol, and filtering through fine sintered crucibles (previously weighed) followed by drying in a vacuum oven. The irradiation condition is the same as that in the decomposition rate example hereinabove.
The irradiations are carried out in degassed (three cycles of freeze-thaw under high vacuum) sealed 15-mm Pyrex tubes. The tubes are placed in a merry-go-round with a filtered UV source of 366 nm at the center and the yield of polymer is measured (below 10% conversion) gravimetrically. In all of the cases, tubes of the same size and same volume of solution are used. Number-average molecular weights of the purified polymers are determined by viscometry in a benzene solution. […] The solution then is centrifuged and the IR of the centrifugate is measured to determine undecomposed perester. […] The light intensity is measured by benzophenone-benzhydrol actinometry and observed to be Io =6.56×10^17 quanta/min on the average. […]

[6] = Exp. 1: benzene, [I] 10 × 10^-3 M, styrene 2 M
[7] = Exp. 2: benzene, [I] 10 × 10^-3 M, styrene 3.5 M
[8] = Exp. 3: benzene, [I] 10 × 10^-3 M, styrene 5.0 M
[9] = Exp. 4: benzene, [I] 10 × 10^-3 M, styrene 7.0 M
[10] = Exp. 5: chloroform, [I] 5.0 × 10^-3 M, styrene 5.51 M
[11] = Exp. 6: chloroform, [I] 5.0 × 10^-3 M, styrene 6.92 M
[12] = benzene, [I] 0.31 × 10^-3 M, [M] 3.5 M
[13] = benzene, [I] 0.63 × 10^-3 M, [M] 3.5 M
[14] = benzene, [I] 1.15 × 10^-3 M, [M] 3.5 M
[15] = benzene, [I] 2.52 × 10^-3 M, [M] 3.5 M
[16] = benzene, [I] 5.03 × 10^-3 M, [M] 3.5 M
[17] = benzene, [I] 8.05 × 10^-3 M, [M] 3.5 M
[18] = benzene, [I] 10.0 × 10^-3 M, [M] 2.0 M
[19] = benzene, [I] 10.0 × 10^-3 M, [M] 3.5 M
[20] = benzene, [I] 10.0 × 10^-3 M, [M] 5.0 M
[21] = chloroform, [I] 1.11 × 10^-3 M, [M] 4.33 M
[22] = chloroform, [I] 2.28 × 10^-3 M, [M] 4.33 M
[23] = chloroform, [I] 5.14 × 10^-3 M, [M] 4.33 M
[24] = chloroform, [I] 9.92 × 10^-3 M, [M] 4.33 M

thermal half-life t1/2 [1]: 6.7 h | triplet energy ET [2]: 67.7 kcal/mol | kd, rate of decomposition of perester in the absence of monomer ([4]; Table X footnote): 0.000512 mol/L/s | φrel [4, 12]: 0.14 | φrel [4, 13]: 0.14 | φrel [4, 14]: 0.14 | φrel [4, 15]: 0.14 | φrel [4, 16]: 0.14 | φrel [4, 17]: 0.14 | φrel [4, 18]: 0.25 | φrel [4, 19]: 0.14 | φrel [4, 20]: 0.12 | φrel ([4]; chloroform, [I] 0.14 × 10^-3 M, [M] not given): 1.32 | φrel [4, 21]: 0.14 | relative quantum yield φrel of decomposition ([5]; methyl methacrylate 2.34 M): 0.88 | relative quantum yield φrel of decomposition ([5]; methyl methacrylate 4.68 M): 0.80
SMILES: CC(C)(C)OOC(=O)c1ccc(C(=O)c2ccccc2)cc1 [Ia, t-Butyl-4-Benzoylperbenzoate]
thermal 1st order dec rate × 10^5 [1]: 2.88 M × 10^5 s^-1 | total number of benzophenones as end groups per chain, in words [3]: one benzophenone end group | end groups per chain, Benzophenone [3, 6]: 0.18 | end groups per chain, Benzophenone as ester [3, 6]: 0.52 | end groups per chain, Total [3, 6]: 0.70 | end groups per chain, Benzophenone [3, 7]: 0.13 | end groups per chain, Benzophenone as ester [3, 7]: 0.68 | end groups per chain, Total [3, 7]: 0.81 | end groups per chain, Benzophenone [3, 8]: 0.33 | end groups per chain, Benzophenone as ester [3, 8]: 0.73 | end groups per chain, Total [3, 8]: 1.06 | end groups per chain, Benzophenone [3, 9]: 0.18 | end groups per chain, Benzophenone as ester [3, 9]: 0.81 | end groups per chain, Total [3, 9]: 0.99 | end groups per chain, Benzophenone [3, 10]: 0.29 | end groups per chain, Benzophenone as ester [3, 10]: 0.62 | end groups per chain, Total [3, 10]: 0.91 | end groups per chain, Benzophenone [3, 11]: 0.34 | end groups per chain, Benzophenone as ester [3, 11]: 0.71 | end groups per chain, Total [3, 11]: 1.05 | total number of benzophenones as end groups per chain, in words ([3]; listed as Perester): almost unity | radical efficiency, in words [4]: approaches unity at low initiator concentrations | Average degree of polymerization [4, 12]: 320.4 | Radical efficiency f [4, 12]: 0.92 | Rp × 10^5 [4, 12]: 0.65 mole/liter sec | Average degree of polymerization [4, 13]: 166.7 | Radical efficiency f [4, 13]: 1.21 | Rp × 10^5 [4, 13]: 0.92 mole/liter sec | Average degree of polymerization [4, 14]: 155.5 | Radical efficiency f [4, 14]: 1.00 | Rp × 10^5 [4, 14]: 1.29 mole/liter sec | Average degree of polymerization [4, 15]: 102.8 | Radical efficiency f [4, 15]: 0.79 | Rp × 10^5 [4, 15]: 1.47 mole/liter sec | Average degree of polymerization [4, 16]: 85.7 | Radical efficiency f [4, 16]: 0.56 | Rp × 10^5 [4, 16]: 1.72 mole/liter sec | Average degree of polymerization [4, 17]: 77.2 | Radical efficiency f [4, 17]: 0.41 | Rp × 10^5 [4, 17]: 1.83 mole/liter sec | Average degree of polymerization [4, 18]: 48.0 | Radical efficiency f [4, 18]: 0.16 | Rp × 10^5 [4, 18]: 0.95 mole/liter sec | Average degree of polymerization [4, 19]: 137.2 | Radical efficiency f [4, 19]: 0.15 | Rp × 10^5 [4, 19]: 1.50 mole/liter sec | Average degree of polymerization [4, 20]: 219.2 | Radical efficiency f [4, 20]: 0.16 | Rp × 10^5 [4, 20]: 2.08 mole/liter sec | Average degree of polymerization [4, 21]: 186.0 | Radical efficiency f [4, 21]: 0.89 | Rp × 10^5 [4, 21]: 1.32 mole/liter sec | Average degree of polymerization [4, 22]: 130.0 | Radical efficiency f [4, 22]: 0.86 | Rp × 10^5 [4, 22]: 1.83 mole/liter sec | Average degree of polymerization [4, 23]: 102.9 | Radical efficiency f [4, 23]: 0.37 | Rp × 10^5 [4, 23]: 2.01 mole/liter sec | Average degree of polymerization [4, 24]: 80.5 | Radical efficiency f [4, 24]: 0.40 | Rp × 10^5 [4, 24]: 2.29 mole/liter sec | rate of polymerization of styrene, in words ([4]; same concentration of initiators and monomer): almost double
